Experimental data from US20060167110A1 (priority 1995, published 2006).
Where “and” joins values, the source holds several entries; their conditions need not be identical. Equal values may be shown once.

Assays:
[1] = tested on: rat embryonic mesencephalic cells; assay: [3H]dopamine uptake, medium change (glutamate receptor dependent) model of cell death
Procedure: Preparations are then added to 10 ml Ecoscint (National Diagnostics) and counted in a scintillation spectrometer.
(§3) In these experiments, cells were plated and allowed to stabilize for several days.

[2] = target: T1, MAO-A (Cavia porcellus, UniProt H0UVA2); assay: MAO-A inhibition in guinea pig hippocampal homogenates in vitro; assay type: biochemical; parameters: specific substrates of MAO-A (^14C-serotonin) in guinea pig hippocampal homogenates; from tissue; host or cells: guinea pig hippocampal homogenates; conditions: for reduction in potency compared to selegiline, MAO-A: figure in parentheses, times less potent
T1 sequence (H0UVA2 1-461): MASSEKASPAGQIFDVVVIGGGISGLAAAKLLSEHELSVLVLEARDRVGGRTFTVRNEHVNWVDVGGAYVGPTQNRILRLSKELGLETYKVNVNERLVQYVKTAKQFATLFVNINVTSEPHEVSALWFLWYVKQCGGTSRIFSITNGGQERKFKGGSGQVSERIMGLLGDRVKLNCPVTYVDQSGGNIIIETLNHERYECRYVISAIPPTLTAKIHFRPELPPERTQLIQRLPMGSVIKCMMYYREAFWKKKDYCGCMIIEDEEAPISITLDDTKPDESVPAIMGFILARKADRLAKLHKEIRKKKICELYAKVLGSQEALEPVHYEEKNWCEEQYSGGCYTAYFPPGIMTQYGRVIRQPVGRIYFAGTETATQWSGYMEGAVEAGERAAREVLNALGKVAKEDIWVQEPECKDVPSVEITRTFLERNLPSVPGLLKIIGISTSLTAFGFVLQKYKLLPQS
Excerpt: (§1) Human platelet MAO is comprised exclusively of the type-B isoform of the enzyme. […] The present study also examined the two enantiomers of DMS for inhibitory activity with respect to the MAO-A and MAO-B in guinea pig hippocampal tissue. Guinea pig brain tissue is an excellent animal model for studying brain dopamine metabolism, the enzyme kinetics of the multiple forms of MAO and the inhibitory properties of novel agents that interact with these enzymes. The multiple forms of MAO in this animal species show similar kinetic properties to those found in human brain tissue. Finally, the test agents were administered to guinea pigs and the extent to which they might act as inhibitors of brain MAO in vivo was assessed.
(§2) In vitro: The test system utilized the in vitro conversion of specific substrates of MAO-A (^14C-serotonin) in guinea pig hippocampal homogenates or MAO-B (^14C-phenylethylamine) by human platelets and guinea pig hippocampal homogenates. […] A percent inhibition was calculated from these values.

[3] = target: T2, MAO-A (Rattus norvegicus, UniProt P21396); assay: MAO-A inhibition in rat brain tissue; assay type: biochemical; parameters: from tissue; host or cells: rat cortex mitochondrial-rich fractions
T2 sequence (P21396 1-526): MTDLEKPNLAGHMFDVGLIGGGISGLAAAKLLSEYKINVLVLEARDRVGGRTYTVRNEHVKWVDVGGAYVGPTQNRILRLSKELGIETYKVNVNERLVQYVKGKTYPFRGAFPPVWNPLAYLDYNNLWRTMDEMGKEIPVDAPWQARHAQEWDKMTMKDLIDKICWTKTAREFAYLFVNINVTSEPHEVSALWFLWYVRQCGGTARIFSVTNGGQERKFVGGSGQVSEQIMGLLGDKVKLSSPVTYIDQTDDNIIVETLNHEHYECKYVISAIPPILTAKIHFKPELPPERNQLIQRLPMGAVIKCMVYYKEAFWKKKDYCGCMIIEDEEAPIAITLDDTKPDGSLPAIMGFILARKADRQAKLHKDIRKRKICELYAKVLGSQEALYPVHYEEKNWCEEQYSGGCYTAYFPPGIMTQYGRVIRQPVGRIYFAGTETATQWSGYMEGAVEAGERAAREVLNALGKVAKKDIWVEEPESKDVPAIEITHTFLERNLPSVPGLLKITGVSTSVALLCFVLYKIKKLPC

[4] = target: T3, MAO-B (Cavia porcellus, UniProt P58028); assay: In vivo brain MAO-B inhibition in guinea pig hippocampus after 5 daily s.c. doses; conditions: preliminary studies
T3 construct: MAO-B (^14C-phenylethylamine) by human platelets and guinea pig hippocampal homogenates; from tissue; host or cells: guinea pig hippocampal homogenates
T3 sequence (P58028 1-520): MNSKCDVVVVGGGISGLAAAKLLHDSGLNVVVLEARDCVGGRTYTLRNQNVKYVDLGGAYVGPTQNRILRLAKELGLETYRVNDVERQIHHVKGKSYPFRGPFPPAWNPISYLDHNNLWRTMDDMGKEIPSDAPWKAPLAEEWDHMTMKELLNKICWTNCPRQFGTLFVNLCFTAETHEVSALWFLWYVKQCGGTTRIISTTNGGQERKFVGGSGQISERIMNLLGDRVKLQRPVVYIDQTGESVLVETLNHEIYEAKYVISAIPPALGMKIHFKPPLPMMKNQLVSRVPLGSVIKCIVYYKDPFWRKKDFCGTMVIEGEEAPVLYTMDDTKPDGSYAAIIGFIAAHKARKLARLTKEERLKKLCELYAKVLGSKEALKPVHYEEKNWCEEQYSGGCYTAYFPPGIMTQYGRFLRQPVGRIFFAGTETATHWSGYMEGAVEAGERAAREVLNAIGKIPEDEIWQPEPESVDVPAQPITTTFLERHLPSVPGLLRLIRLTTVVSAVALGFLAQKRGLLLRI
Procedure: FIG. 20: In vivo MAO-B Inhibition in Guinea Pig Hippocampus. […] Animals were then sacrificed and the MAO-B activity in the hippocampus portion of the brain was determined. […] The plots were used to estimate the ID50 dosage for each agent.
Each enantiomer of DMS was administered in vivo by subcutaneous injection once a day for five consecutive days, and inhibition of brain MAO-B activity was then determined.

[5] = target: T1, MAO-A; assay: In vivo MAO-A inhibition in guinea pig cortex (hippocampus) after 5 s.c. treatments; conditions: sc, read-out: inhibition of MAO-A activity
Procedure: Hippocampal homogenates containing enzyme were prepared, and assays in vitro for MAO-A and MAO-B activity.

[6] = target: T3, MAO-B; assay: MAO-B inhibition in guinea pig hippocampal homogenates in vitro; assay type: biochemical; conditions: for IC50: IC50 Values for the Inhibition of MAO-B, Guinea Pig Hippocampal Cortex; for reduction in potency compared to selegiline, MAO-B, Guinea Pig Hippocampal Cortex: figure in parentheses
Excerpt: as §1, §2

[7] = tested on: cultured rat mesencephalic cells; assay: TH immunochemistry after 100 μM NMDA exposure
Procedure: Rat mesencephalic cell cultures were exposed to 100 μM NMDA and incubated as described above in connection with FIG. 16.

[8] = tested on: rat embryonic mesencephalic cells; assay: TH positive cell survival, medium change (glutamate receptor dependent) model of cell death
Procedure: as §3

[9] = target: T4, dopamine uptake system (Rattus norvegicus, UniProt P23977); assay: Inhibition of tritiated dopamine uptake in rat neostriatal nerve-terminal (synaptosome) preparation; assay type: biochemical
T4 construct: An in vitro nerve-terminal preparation (symptosome-preparation) was obtained from fresh rat neostriatal brain tissue; from tissue; host or cells: rat neostriatal synaptosomes
T4 sequence (P23977 whole entry): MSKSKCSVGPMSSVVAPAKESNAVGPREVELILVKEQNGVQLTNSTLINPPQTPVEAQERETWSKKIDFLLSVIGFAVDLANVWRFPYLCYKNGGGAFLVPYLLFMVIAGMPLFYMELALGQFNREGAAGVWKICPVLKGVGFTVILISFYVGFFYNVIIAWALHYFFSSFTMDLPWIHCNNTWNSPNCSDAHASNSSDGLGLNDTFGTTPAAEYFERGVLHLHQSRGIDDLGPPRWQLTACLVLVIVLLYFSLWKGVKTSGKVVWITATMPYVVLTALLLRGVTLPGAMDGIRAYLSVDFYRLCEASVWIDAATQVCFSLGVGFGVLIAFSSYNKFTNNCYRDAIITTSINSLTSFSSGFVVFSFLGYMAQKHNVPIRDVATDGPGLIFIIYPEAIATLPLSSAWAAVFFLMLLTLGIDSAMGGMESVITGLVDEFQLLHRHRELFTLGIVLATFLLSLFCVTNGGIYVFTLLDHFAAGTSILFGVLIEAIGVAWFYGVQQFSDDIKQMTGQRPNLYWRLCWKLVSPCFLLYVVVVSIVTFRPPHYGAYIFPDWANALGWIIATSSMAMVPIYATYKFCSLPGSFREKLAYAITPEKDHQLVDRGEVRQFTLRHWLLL
Procedure: An in vitro nerve terminal preparation (synaptosome preparation) was prepared using fresh rat neostriatal tissue.
Transport by dopamine nerve-terminals was estimated by measuring the uptake of tritiated dopamine.

[10] = tested on: cerebral infarction; conditions: given orally; patients with subarachnoid hemorrhage and cerebral vasospasm; cited from earlier work

C[C@]12N[C@H](Cc3ccccc31)c1ccccc12 [MK-801, reference compound]
neuron protection by measurement of dopamine uptake (FIG. 15) ([1]; 10 μM): protection was also obtained

C#CCNC(C)Cc1ccccc1 (single isomer, unassigned) [R(−)DMS, R(−)-desmethylselegiline]
IC50 [2]: 50 µM
MAO-A % Reduction 0 ± SEM ([2]; Concentration 300 nM): 4.8 ± 2.1%
MAO-A % Reduction 0 ± SEM ([2]; Concentration 1 μM): 4.2 ± 1.5%
MAO-A % Reduction 0 ± SEM ([2]; Concentration 3 μM): 10.5 ± 2.0%
MAO-A % Reduction 0 ± SEM ([2]; Concentration 10 μM): 19.0 ± 1.3%
MAO-A % Reduction 0 ± SEM ([2]; Concentration 100 μM): 64.2 ± 1.5%
MAO-A % Reduction 0 ± SEM ([2]; Concentration 1 mM): 96.5 + 1.2%
reduction in potency compared to selegiline, MAO-A [2]: 20
IC50 [3]: 70 µM
times less potent than selegiline in inhibiting MAO-A ([3]; in vitro, rat brain tissue): approximately 39 times
times less potent than selegiline, brain MAO-B in vivo [4]: about 10 times
neuron protection by measurement of dopamine uptake (FIG. 15) ([1]; 5 μM): neuron protection
more axonal growth and terminal axonal survival compared to untreated control cells ([1]; 10 μM, medium change model): 40%
neuron protection by measurement of dopamine uptake (FIG. 15) ([1]; 50 μM): neuron protection
inhibition at 3 mg/kg [5]: 29.8%
IC50 [6]: 0.06 µM
reduction in potency compared to selegiline, MAO-B, Guinea Pig Hippocampal Cortex [6]: 60 nM (60)

C#CCNC(C)Cc1ccccc1 (single isomer, unassigned) [S(+)DMS, S(+)-desmethylselegiline]
TH positive cells, % control ([7]; 0.5 μM, Mean): 182.3 % control
TH positive cells, cells/cm^2 ([7]; 0.5 μM, Mean): 171.67 cells/cm^2
TH positive cells, % control ([7]; 0.5 μM, single sample): 135.4 % control and 223.0 % control and 188.5 % control
TH positive cells, cells/cm^2 ([7]; 0.5 μM, single sample): 127.5 cells/cm^2 and 210 cells/cm^2 and 177.5 cells/cm^2
TH positive cells, % control ([7]; 5.0 μM, Mean): 197.8 % control
TH positive cells, cells/cm^2 ([7]; 5.0 μM, Mean): 186.25 cells/cm^2
TH positive cells, % control ([7]; 5.0 μM, single sample): 204.4 % control and 199.1 % control and 183.2 % control
TH positive cells, cells/cm^2 ([7]; 5.0 μM, single sample): 192.5 cells/cm^2 and 187.5 cells/cm^2 and 172.5 cells/cm^2
TH positive cells, % control ([7]; 50 μM, Mean): 276.1 % control
TH positive cells, cells/cm^2 ([7]; 50 μM, Mean): 260 cells/cm^2
TH positive cells, % control ([7]; 50 μM, single sample): 315.9 % control and 215.0 % control and 337.2 % control and 236.3 % control
TH positive cells, cells/cm^2 ([7]; 50 μM, single sample): 297.5 cells/cm^2 and 202.5 cells/cm^2 and 317.5 cells/cm^2 and 222.5 cells/cm^2
MAO-A % Reduction 0 ± SEM ([2]; Concentration 1 nM): 92.7 ± 2.5%
MAO-A % Reduction 0 ± SEM ([2]; Concentration 10 nM): 99.6 ± 0.35%
MAO-A % Reduction 0 ± SEM ([2]; Concentration 1 μM): 3.3 + 1.5%
MAO-A % Reduction 0 ± SEM ([2]; Concentration 3 μM): 4.3 ± 1.0%
MAO-A % Reduction 0 ± SEM ([2]; Concentration 10 μM): 10.5 ± 1.47%
MAO-A % Reduction 0 ± SEM ([2]; Concentration 100 μM): 48.4 ± 1.8%
reduction in potency compared to selegiline, MAO-A [2]: 40
TH positive cells, % control ([8]; 0.5 μM, Mean): 143.5 % control
TH positive cells, cells/cm^2 ([8]; 0.5 μM, Mean): 403.1 cells/cm^2
TH positive cells, % control ([8]; 0.5 μM, single sample): 152.7 % control and 125.2 % control
TH positive cells, cells/cm^2 ([8]; 0.5 μM, single sample): 402.5 cells/cm^2 and 330.0 cells/cm^2 and 477.5 cells/cm^2
TH positive cells, % control ([8]; 5.0 μM, Mean): 130.6 % control
TH positive cells, cells/cm^2 ([8]; 5.0 μM, Mean): 344.4 cells/cm^2
TH positive cells, % control ([8]; 5.0 μM, single sample): 129.9 % control and 135.6 % control and 123.3 % control and 133.7 % control
TH positive cells, cells/cm^2 ([8]; 5.0 μM, single sample): 342.5 cells/cm^2 and 357.5 cells/cm^2 and 325.0 cells/cm^2 and 352.5 cells/cm^2
TH positive cells, % control ([8]; 50 μM, Mean): 109.8 % control
TH positive cells, cells/cm^2 ([8]; 50 μM, Mean): 289.4 cells/cm^2
TH positive cells, % control ([8]; 50 μM, single sample): 116.6 % control and 94.8 % control and 118.5 % control and 109.1 % control
TH positive cells, cells/cm^2 ([8]; 50 μM, single sample): 307.5 cells/cm^2 and 250.0 cells/cm^2 and 312.5 cells/cm^2 and 287.5 cells/cm^2
times less potent than selegiline, brain MAO-B in vivo [4]: about 10 times
Dopamine uptake, % control ([1]; 0.5 μM, Mean): 167.2 % control
Dopamine uptake, counts/min ([1]; 0.5 μM, Mean): 35115.5 counts/min
Dopamine uptake, % control ([1]; 0.5 μM, single sample): 170.6 % control and 152.8 % control and 157.4 % control and 188.2 % control
Dopamine uptake, counts/min ([1]; 0.5 μM, single sample): 35830 counts/min and 32074 counts/min and 33042 counts/min and 39516 counts/min
Dopamine uptake, % control ([1]; 5.0 μM, Mean): 180.5 % control
Dopamine uptake, counts/min ([1]; 5.0 μM, Mean): 37889.75 counts/min
Dopamine uptake, % control ([1]; 5.0 μM, single sample): 171.3 % control and 173.7 % control and 181.7 % control and 195.1 % control
Dopamine uptake, counts/min ([1]; 5.0 μM, single sample): 35976 counts/min and 36476 counts/min and 38143 counts/min and 40964 counts/min
Dopamine uptake, % control ([1]; 50 μM, Mean): 157.3 % control
Dopamine uptake, counts/min ([1]; 50 μM, Mean): 33016.75 counts/min
Dopamine uptake, % control ([1]; 50 μM, single sample): 123.8 % control and 177.7 % control and 146.3 % control and 181.1 % control
Dopamine uptake, counts/min ([1]; 50 μM, single sample): 26002 counts/min and 37320 counts/min and 30725 counts/min and 38020 counts/min
IC50 [6]: 1.2 µM
reduction in potency compared to selegiline, MAO-B, Guinea Pig Hippocampal Cortex [6]: 1200 nM (1200)
inhibition at 0.3 µM ([6]; read-out: MAO-B % Inhibition 0 ± SEM, Concentration 300 nM): 18.7 ± 2.1%
inhibition at 3 µM ([6]; read-out: MAO-B % Inhibition 0 ± SEM, Concentration 3 μM): 77.1 ± 6%
times more potent than either selegiline or R(−)DMS in inhibiting dopamine uptake [9]: 4-5 times

C#CCN(C)CCCOc1ccc(Cl)cc1Cl [clorgyline, reference compound]
neuron protection by measurement of dopamine uptake (FIG. 15) ([1]; 50 μM): protected

C#CCN(C)Cc1ccccc1 [Pargyline, pargyline, reference compound]
neuron protection by measurement of dopamine uptake (FIG. 15) ([1]; at the concentrations used (0.5, 5 and 50 μM)): did not appear to offer any protection

COCCOC(=O)C1=C(C)NC(C)=C(C(=O)OC(C)C)C1c1cccc([N+](=O)[O-])c1 (stereo not shown) [Nimodipine]
incidence of cerebral infarction [10]: lower by one third
